Measured values from PubChem BioAssay AID328 (DTP/NCI, 2004).
Values joined by “and” are separate entries in the source; they are usually repeats but may differ in a detail not shown here. Identical values can stand only once. Inconclusive results and toxic doses are left out.

Test system: BDF1 mice, P388 leukemia ip, median survival T/C
Test: NCI In Vivo Anticancer Drug Screen. Data for tumor model P388 Leukemia (intraperitoneal) in B6D2F1 (BDF1) mice
Conditions: endpoint: median survival time, higher = longer survival
Procedure, shortened: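 Compound-treated tumour-bearing mice were compared with vehicle-treated controls. Survival was recorded, and the value is the treated-group measurement divided by the control-group measurement (T/C).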

[1] = dose: 12.5 mg/kg/injection, schedule: Q01DX009 (ip), vehicle: saline with Tween-80
[2] = dose: 25.0 mg/kg/injection, schedule: Q01DX009 (ip), vehicle: saline with Tween-80
[3] = dose: 50.0 mg/kg/injection, schedule: Q01DX009 (ip), vehicle: saline with Tween-80
[4] = dose: 100.0 mg/kg/injection, schedule: Q01DX001 (ip), vehicle: saline with Tween-80
[5] = dose: 200.0 mg/kg/injection, schedule: Q01DX001 (ip), vehicle: saline with Tween-80
[6] = dose: 100.0 mg/kg/injection, schedule: Q01DX009 (ip), vehicle: saline with Tween-80
[7] = dose: 200.0 mg/kg/injection, schedule: Q01DX009 (ip), vehicle: saline with Tween-80
[8] = dose: 50.0 mg/kg/injection, schedule: Q01DX009 (ip), vehicle: saline
[9] = dose: 100.0 mg/kg/injection, schedule: Q01DX009 (ip), vehicle: saline
[10] = dose: 200.0 mg/kg/injection, schedule: Q01DX009 (ip), vehicle: saline
[11] = dose: 25.0 mg/kg/injection, schedule: Q01DX009 (ip), vehicle: saline
[12] = dose: 25.0 mg/kg/injection, schedule: Q01DX009 (ip), vehicle: water
[13] = dose: 50.0 mg/kg/injection, schedule: Q01DX009 (ip), vehicle: water
[14] = dose: 100.0 mg/kg/injection, schedule: Q04DX003 (ip), vehicle: saline with Tween-80
[15] = dose: 200.0 mg/kg/injection, schedule: Q04DX003 (ip), vehicle: saline with Tween-80
[16] = dose: 400.0 mg/kg/injection, schedule: Q04DX003 (ip), vehicle: saline with Tween-80
[17] = dose: 200.0 mg/kg/injection, schedule: Q04DX003 (ip), vehicle: saline

Cc1cc(N(C)C)c(C=O)c(C)c1C=O
T/C (dose: 100.0 mg/kg/injection, schedule: Q04DX002 (ip), vehicle: saline with Tween-80): 113 % of control
T/C (dose: 200.0 mg/kg/injection, schedule: Q04DX002 (ip), vehicle: saline with Tween-80): 110 % of control
T/C (dose: 400.0 mg/kg/injection, schedule: Q04DX002 (ip), vehicle: saline with Tween-80): 87 % of control

Cc1cc2nc3c(=O)[nH]c(=O)nc-3n(CC(O)C(O)C(O)CO)c2cc1C (stereo unspecified)
T/C [1]: 102 % of control
T/C [2]: 94 % of control
T/C [3]: 107 % of control

CCc1noc(CC)c1CC1=C2CCC3(C)CCC(C)(C)CC3C2(C)CCC1=O (stereo unspecified)
T/C [4]: 95 % of control
T/C [5]: 90 % of control
T/C (dose: 400.0 mg/kg/injection, schedule: Q01DX001 (ip), vehicle: saline with Tween-80): 90 % of control

COc1cc(CCC(NC(C)=O)c2cccc(O)c(=O)c2)cc(OC)c1OC (stereo unspecified)
T/C [2]: 90 % of control
T/C [3]: 96 % of control
T/C [6]: 90 % of control
T/C [7]: 91 % of control

Cn1nnc(CC(=O)O)n1
T/C [8]: 110 % of control
T/C [9]: 101 % of control
T/C [10]: 99 % of control

CC(=O)OC1C=CCC2C(=O)C3=C(C(=O)c4ccccc4C3=O)C(=O)C12 (stereo unspecified)
T/C (dose: 3.12 mg/kg/injection, schedule: Q01DX009 (ip), vehicle: saline with Tween-80): 98 % of control
T/C (dose: 6.25 mg/kg/injection, schedule: Q01DX009 (ip), vehicle: saline with Tween-80): 98 % of control
T/C [1]: 107 % of control
T/C [2]: 112 % of control
T/C [3]: 112 % of control

O=C(O)C1(NO)CCCC1
T/C [9]: 95 % of control
T/C [10]: 104 % of control

NCCNCC[OH2+].NCCNCC[OH2+].O=S(=O)([O-])[O-].[Cu+2]
T/C (dose: 6.25 mg/kg/injection, schedule: Q01DX009 (ip), vehicle: saline): 105 % of control
T/C (dose: 12.5 mg/kg/injection, schedule: Q01DX009 (ip), vehicle: saline): 108 % of control
T/C [11]: 103 % of control

OCC1OC(OC2(CO)OC(CO)C(O)C2O)C(O)C(O)C1O (stereo unspecified)
T/C (dose: 11.0 mg/kg/injection, schedule: Q01DX009 (ip), vehicle: saline): 118 % of control
T/C (dose: 22.0 mg/kg/injection, schedule: Q01DX009 (ip), vehicle: saline): 113 % of control and 115 % of control
T/C (dose: 67.0 mg/kg/injection, schedule: Q01DX009 (ip), vehicle: saline): 115 % of control and 122 % of control
T/C (dose: 100.0 mg/kg/injection, schedule: Q01DX010 (ip), vehicle: saline): 115 % of control
T/C (dose: 200.0 mg/kg/injection, schedule: Q01DX010 (ip), vehicle: saline): 103 % of control
T/C (dose: 400.0 mg/kg/injection, schedule: Q01DX010 (ip), vehicle: saline): 100 % of control
T/C (dose: 600.0 mg/kg/injection, schedule: Q01DX010 (ip), vehicle: saline): 115 % of control

NC(Cc1ccccc1Cl)C(=O)O (stereo unspecified)
T/C [1]: 86 % of control
T/C [2]: 101 % of control
T/C [11]: 122 % of control
T/C [3]: 107 % of control
T/C [8]: 116 % of control
T/C [6]: 102 % of control
T/C [7]: 94 % of control

CCCNCC(O)c1cc(C(F)(F)F)nc2c(C(F)(F)F)cccc12 (stereo unspecified)
T/C [3]: 115 % of control
T/C [6]: 104 % of control

O=[N+]([O-])/C=C/c1ccc2ccccc2n1
T/C (dose: 1.25 mg/kg/injection, schedule: Q01DX009 (ip), vehicle: saline with Tween-80): 103 % of control
T/C (dose: 2.5 mg/kg/injection, schedule: Q01DX009 (ip), vehicle: saline with Tween-80): 92 % of control and 94 % of control
T/C (dose: 5.0 mg/kg/injection, schedule: Q01DX009 (ip), vehicle: saline with Tween-80): 94 % of control and 110 % of control
T/C (dose: 10.0 mg/kg/injection, schedule: Q01DX009 (ip), vehicle: saline with Tween-80): 94 % of control and 115 % of control
T/C (dose: 12.5 mg/kg/injection, schedule: Q04DX003 (ip), vehicle: saline with Tween-80): 111 % of control
T/C (dose: 20.0 mg/kg/injection, schedule: Q01DX009 (ip), vehicle: saline with Tween-80): 94 % of control
T/C (dose: 25.0 mg/kg/injection, schedule: Q04DX003 (ip), vehicle: saline with Tween-80): 102 % of control

O=[N+]([O-])C=C(S)S
T/C (dose: 12.5 mg/kg/injection, schedule: Q01DX009 (ip), vehicle: water): 101 % of control
T/C [12]: 124 % of control
T/C [13]: 117 % of control
T/C (dose: 100.0 mg/kg/injection, schedule: Q01DX009 (ip), vehicle: water): 108 % of control

COc1cc2c(cc1OC)C(OC)N(C)c1c-2ccc2cc(OC)c(OC)cc12 (stereo unspecified)
T/C (dose: 100.0 mg/kg/injection, schedule: Q04DX003 (ip), vehicle: water): 161 % of control
T/C (dose: 200.0 mg/kg/injection, schedule: Q04DX003 (ip), vehicle: water): 161 % of control
T/C (dose: 300.0 mg/kg/injection, schedule: Q04DX003 (ip), vehicle: water): 166 % of control
T/C (dose: 400.0 mg/kg/injection, schedule: Q04DX003 (ip), vehicle: water): 102 % of control

C/C=C/C=N/NC(=S)NC
T/C (dose: 6.75 mg/kg/injection, schedule: Q01DX009 (ip), vehicle: saline with Tween-80): 109 % of control
T/C (dose: 13.5 mg/kg/injection, schedule: Q01DX009 (ip), vehicle: saline with Tween-80): 91 % of control
T/C (dose: 27.0 mg/kg/injection, schedule: Q01DX009 (ip), vehicle: saline with Tween-80): 86 % of control

c1ccc(SCN2CCN(CSc3ccccc3)CC2)cc1
T/C (dose: 50.0 mg/kg/injection, schedule: Q01DX001 (ip), vehicle: saline): 95 % of control
T/C (dose: 100.0 mg/kg/injection, schedule: Q01DX001 (ip), vehicle: saline): 109 % of control

CC1(O)C=CC(=O)C=C1
T/C [12]: 157 % of control
T/C [13]: 173 % of control

O=C(O)C1C=CC(C(=O)O)CC1 (stereo unspecified)
T/C [14]: 95 % of control
T/C [15]: 93 % of control
T/C [16]: 93 % of control

C1CCNCC1.O=C([CH-]C(=O)C(F)(F)F)c1ccc2c(c1)C(=O)c1ccccc1-2.O=C([CH-]C(=O)C(F)(F)F)c1ccc2c(c1)C(=O)c1ccccc1-2.O=C([CH-]C(=O)C(F)(F)F)c1ccc2c(c1)C(=O)c1ccccc1-2.O=C([CH-]C(=O)C(F)(F)F)c1ccc2c(c1)C(=O)c1ccccc1-2.[Eu+3]
T/C (dose: 100.0 mg/kg/injection, schedule: Q01DX009 (ip), vehicle: Klucel (hydroxypropylcellulose) (HPC)): 102 % of control
T/C (dose: 200.0 mg/kg/injection, schedule: Q01DX009 (ip), vehicle: Klucel (hydroxypropylcellulose) (HPC)): 102 % of control

O=S1(=O)C=C(c2ccccc2)C1
T/C [3]: 108 % of control
T/C [6]: 107 % of control

CC1(C(N)=O)CCCC2(C)c3ccccc3CCC12 (stereo unspecified)
T/C [14]: 100 % of control
T/C [15]: 104 % of control
T/C [16]: 100 % of control

O=C(O)c1ccc2cc(O)ccc2c1
T/C (dose: 50.0 mg/kg/injection, schedule: Q01DX001 (ip), vehicle: saline with Tween-80): 100 % of control
T/C [8]: 116 % of control
T/C (dose: 50.0 mg/kg/injection, schedule: Q04DX003 (ip), vehicle: saline): 109 % of control
T/C [4]: 113 % of control
T/C [9]: 116 % of control
T/C (dose: 100.0 mg/kg/injection, schedule: Q04DX003 (ip), vehicle: saline): 109 % of control
T/C [5]: 100 % of control
T/C [10]: 104 % of control
T/C [17]: 100 % of control

C=CCOc1ccccc1OC
T/C [2]: 100 % of control
T/C [3]: 113 % of control
T/C [6]: 107 % of control and 113 % of control
T/C [14]: 100 % of control
T/C [7]: 100 % of control
T/C [15]: 113 % of control

CCCCCCC(O)CCc1ccccc1 (stereo unspecified)
T/C (dose: 100.0 mg/kg/injection, schedule: Q01DX001 (ip), vehicle: Klucel (hydroxypropylcellulose) (HPC)): 100 % of control
T/C (dose: 200.0 mg/kg/injection, schedule: Q01DX001 (ip), vehicle: Klucel (hydroxypropylcellulose) (HPC)): 95 % of control
T/C (dose: 400.0 mg/kg/injection, schedule: Q01DX001 (ip), vehicle: Klucel (hydroxypropylcellulose) (HPC)): 104 % of control

Cc1cc2nc(N)sc2cc1C
T/C (dose: 12.5 mg/kg/injection, schedule: Q01DX009 (ip), vehicle: other): 115 % of control
T/C (dose: 25.0 mg/kg/injection, schedule: Q01DX009 (ip), vehicle: other): 105 % of control

O=[N+]([O-])c1cc2c(c([N+](=O)[O-])c1)OCOC2
T/C [2]: 95 % of control
T/C [3]: 95 % of control
T/C [6]: 86 % of control
T/C [14]: 100 % of control
T/C [15]: 95 % of control

C[n+]1ccc(Nc2ccc(NC(=O)c3ccc(Nc4cc[n+](C)c5ccc([N+](=O)[O-])cc45)cc3[N+](=O)[O-])cc2)cc1
T/C (dose: 25.0 mg/kg/injection, schedule: Q04DX003 (ip), vehicle: saline): 105 % of control and 116 % of control
T/C [17]: 158 % of control and 203 % of control
